# Laboratory results as given in US7157494B2, “Dimeric compounds and their use as anti-viral agents” (priority 2001, dated 2007).
# Values joined by “and” are separate entries in the source; they are usually repeats but may differ in a detail not shown here. Equal entries are not always repeated.
# Experiments:
# Influenza A/Sydney/5/97 = type: cell-based; settings: concentration that inhibited CPE by 50%; MDCK cells, up to 72 hours, MTT
# Influenza B/Harbin/7/95 = type: cell-based; settings: concentration that inhibited CPE by 50%; MDCK cells, up to 72 hours, MTT
# [1] = Rat lung retention assay (intra-tracheal dosing, compound level in lung tissue); type: in vivo; settings: for concentration at 48 h / concentration at 168 h: Mean [cmpd] ng/g; for [cmpd] / Mean [cmpd]: rat lung tissue; for [cmpd]: individual animal
# Method: Rodents are anaesthetised and dosed with compound of interest by the intra-tracheal route at a dose volume of 0.8 ml/kg. The rodent is then held in the vertical position until full recovery is achieved. […] Any analytical method suitable for detection of this type of compound may be used. The time at which levels of compound fall below the sensitivity of the analytical techniques identified will determine the residency time of the compound in lung tissue.
# Please note that all experiments included a co-dosed internal standard, namely compound 3 of International Patent Publication No. WO 02/20514, to permit comparison. The data are expressed as a ratio with respect to this compound, the structure of which is shown below.
# [2] = tested on: A/Bayern/7/95 BVL006 (H1N1); assay: Plaque reduction assay (PRA) in MDCK cells; type: cell-based, influenza A H1N1
# Method: (§1) Madin Darby Canine Kidney (MDCK) cells are seeded into six well tissue culture plates and grown to confluency via standard methods. Influenza viruses are diluted in a minimal volume of phosphate buffered saline supplemented with 0.2% bovine serum albumin to yield an estimated titre of 50–100 plaque forming units (pfu) per well. After adsorption to the MDCK cells for one hour at 37° C. in a 5% CO2 atmosphere the viral inocula is aspirated and replaced with viral growth media (minimal Eagle's media supplemented with BSA, trypsin and insulin/transferrin/selenium at optimal concentrations) containing sufficient agar or agarose (generally 1–2%) to cause the media to gel at room temperature and at 37° C. in a 5% CO2 atmosphere until plaques develop (generally 2–4 days). Plaques can be visualised with a suitable stain (e.g. 0.4% crystal violet in formal saline) before counting.
# [3] = tested on: A/New Caledonia/20/99 BVLV008 (H1N1); assay: Plaque reduction assay (PRA) in MDCK cells; type: cell-based, influenza A H1N1
# Method: as §1
# A/WSN/33 BVLV09 (H1N1) = assay: Plaque reduction assay (PRA) in MDCK cells; type: cell-based, influenza A H1N1
# Method: as §1
# [4] = tested on: A/Panama/2007/99 BVLV008 (H3N2); assay: Plaque reduction assay (PRA) in MDCK cells; type: cell-based, influenza A H3N2
# Method: as §1
# [5] = tested on: A/Sydney/5/97 BVLV015 (H3N2); assay: Plaque reduction assay (PRA) in MDCK cells; type: cell-based, influenza A H3N2
# Method: as §1
# [6] = tested on: A/Victoria/3/75 BVLV017 (H3N2); assay: Plaque reduction assay (PRA) in MDCK cells; type: cell-based, influenza A H3N2
# Method: as §1
# B/Hong Kong/5/72 BVLV012 = assay: Plaque reduction assay (PRA) in MDCK cells; type: cell-based, influenza B
# Method: as §1
# [7] = tested on: B/Yamanashi/166/98 BVLV007; assay: Plaque reduction assay (PRA) in MDCK cells; type: cell-based, influenza B
# Method: as §1
structure (smiles),measurement,setting,value
CC(=O)N[C@H]1[C@H]([C@H](OC(=O)NCCCNC(=O)c2ccccc2C(=O)NCCCNC(=O)O[C@@H]([C@@H]2OC(C(=O)O)=C[C@H](NC(=N)N)[C@H]2NC(C)=O)[C@H](O)CO)[C@H](O)CO)OC(C(=O)O)=C[C@@H]1NC(=N)N [Compound 12],ID50 A/Sydney/5/97,Influenza A/Sydney/5/97,>100 ng/mL
same,ID50 B/Harbin/7/95,Influenza B/Harbin/7/95,0.1 ng/mL
CC(=O)N[C@H]1[C@H]([C@H](OC(=O)NCCCCNS(=O)(=O)c2cccc(S(=O)(=O)NCCCCNC(=O)O[C@@H]([C@@H]3OC(C(=O)O)=C[C@H](NC(=N)N)[C@H]3NC(C)=O)[C@H](O)CO)c2)[C@H](O)CO)OC(C(=O)O)=C[C@@H]1NC(=N)N [Compound 3],ID50 A/Sydney/5/97,Influenza A/Sydney/5/97,0.1 ng/mL
same,ID50 B/Harbin/7/95,Influenza B/Harbin/7/95,0.07 ng/mL
same,Ratio Mean [lung] [cmpd]/PCT AU01/01128 compound 3,"[1]; rat, in vivo, 0.1 mg/kg, 48 h",0.49
same,Ratio Mean [lung] [cmpd]/PCT AU01/01128 compound 3,"[1]; rat, in vivo, 0.1 mg/kg, 168 h",0.36
same,concentration at 48 h,"[1]; rat, in vivo, 0.1 mg/kg",1410 ng/g
same,concentration at 168 h,"[1]; rat, in vivo, 0.1 mg/kg",329 ng/g
CC(=O)N[C@H]1[C@H]([C@H](OC(=O)NCCCNC(=O)c2ccc(C(=O)NCCCNC(=O)O[C@@H]([C@@H]3OC(C(=O)O)=C[C@H](NC(=N)N)[C@H]3NC(C)=O)[C@H](O)CO)cc2)[C@H](O)CO)OC(C(=O)O)=C[C@@H]1NC(=N)N [Compound 5],EC50 PRA A/Bay,[2],0.009 ng/mL
same,EC50 PRA A/New,[3],0.06 ng/mL
same,EC50 PRA A/WSN,A/WSN/33 BVLV09 (H1N1),0.02 ng/mL
same,EC50 PRA A/Pan,[4],0.03 ng/mL
same,EC50 PRA A/Syd,[5],0.05 ng/mL
same,EC50 PRA A/Vic,[6],0.003 ng/mL
same,EC50 PRA B/HongK,B/Hong Kong/5/72 BVLV012,0.316 ng/mL
same,EC50 PRA B/Yam,[7],0.022 ng/mL
same,[cmpd],"[1]; 48 hrs, 0.1 mg/kg intra-tracheal, 0.1 mg/kg",1325 ng/g and 750 ng/g and 778 ng/g
same,Mean [cmpd],"[1]; 48 hrs, 0.1 mg/kg intra-tracheal",951 ng/g
same,[cmpd],"[1]; 168 hrs, 0.1 mg/kg intra-tracheal, 0.1 mg/kg",272 ng/g and 636 ng/g and 300 ng/g
same,Mean [cmpd],"[1]; 168 hrs, 0.1 mg/kg intra-tracheal",403 ng/g
same,Ratio Mean [lung] [cmpd]/PCT AU01/01128 compound 3,"[1]; rat lung, 48 hrs, 0.1 mg/kg intra-tracheal",0.68
same,Ratio Mean [lung] [cmpd]/PCT AU01/01128 compound 3,"[1]; rat lung, 168 hrs, 0.1 mg/kg intra-tracheal",0.41
CC(=O)N[C@H]1[C@H]([C@H](OC(=O)NCCCCCCNC(=O)c2cccc(C(=O)NCCCCCCNC(=O)O[C@@H]([C@@H]3OC(C(=O)O)=C[C@H](NC(=N)N)[C@H]3NC(C)=O)[C@H](O)CO)c2)[C@H](O)CO)OC(C(=O)O)=C[C@@H]1NC(=N)N [Compound 8],ID50 A/Sydney/5/97,Influenza A/Sydney/5/97,0.4 ng/mL
same,ID50 B/Harbin/7/95,Influenza B/Harbin/7/95,0.9 ng/mL
CC(=O)N[C@H]1[C@H]([C@H](OC(=O)NCCCNC(=O)Cc2ccccc2CC(=O)NCCCNC(=O)O[C@@H]([C@@H]2OC(C(=O)O)=C[C@H](NC(=N)N)[C@H]2NC(C)=O)[C@H](O)CO)[C@H](O)CO)OC(C(=O)O)=C[C@@H]1NC(=N)N [Compound 14],ID50 A/Sydney/5/97,Influenza A/Sydney/5/97,0.2 ng/mL
same,ID50 B/Harbin/7/95,Influenza B/Harbin/7/95,0.3 ng/mL
CC(=O)N[C@H]1[C@H]([C@H](OC(=O)NCCCCNC(=O)c2cccc(C(=O)NCCCCNC(=O)O[C@@H]([C@@H]3OC(C(=O)O)=C[C@H](NC(=N)N)[C@H]3NC(C)=O)[C@H](O)CO)c2)[C@H](O)CO)OC(C(=O)O)=C[C@@H]1NC(=N)N [Compound 1],Ratio Mean [lung] [cmpd]/PCT AU01/01128 compound 3,"[1]; rat, in vivo, 0.1 mg/kg, 48 h",0.44
same,Ratio Mean [lung] [cmpd]/PCT AU01/01128 compound 3,"[1]; rat, in vivo, 0.1 mg/kg, 168 h",0.41
same,concentration at 48 h,"[1]; rat, in vivo, 0.1 mg/kg",1280 ng/g
same,concentration at 168 h,"[1]; rat, in vivo, 0.1 mg/kg",372 ng/g
CC(=O)N[C@H]1[C@H]([C@H](OC(=O)NCCCNC(=O)c2cccc(C(=O)NCCCNC(=O)O[C@@H]([C@@H]3OC(C(=O)O)=C[C@H](NC(=N)N)[C@H]3NC(C)=O)[C@H](O)CO)c2)[C@H](O)CO)OC(C(=O)O)=C[C@@H]1NC(=N)N [Compound 11],ID50 A/Sydney/5/97,Influenza A/Sydney/5/97,0.1 ng/mL
same,ID50 B/Harbin/7/95,Influenza B/Harbin/7/95,0.1 ng/mL
CC(=O)N[C@H]1[C@H]([C@H](OC(=O)NCCCCCCNC(=O)c2ccc(C(=O)NCCCCCCNC(=O)O[C@@H]([C@@H]3OC(C(=O)O)=C[C@H](NC(=N)N)[C@H]3NC(C)=O)[C@H](O)CO)cc2)[C@H](O)CO)OC(C(=O)O)=C[C@@H]1NC(=N)N [Compound 6],ID50 A/Sydney/5/97,Influenza A/Sydney/5/97,0.2 ng/mL
same,ID50 B/Harbin/7/95,Influenza B/Harbin/7/95,0.9 ng/mL
